Laboratory results as given in patent US11304913B2, “Analgesic compositions” (Vapogenix, Inc., priority 2013, dated 2022).

Type: physicochemical
Description: A time-dependent evaporation study was performed with a composition of the invention (FIG. 3). Isoflurane alone was used as the control in the experiment.

- original weight remaining (0.75 h): 86.8%
- lost due to evaporation (after 45 minutes of experiment): 13.2%
SMILES: FC(F)OC(Cl)C(F)(F)F (centres unmarked) [isoflurane]
